According to ChEMBL document CHEMBL3734670, “Synthetic spirocyclic endoperoxides: new antimalarial scaffolds” (Medchemcomm, 2015):

Key:
Plasmodium falciparum [1] = assay: Antiplasmodial activity against chloroquine-sensitive Plasmodium falciparum D10 infected in human A positive erythrocyte assessed as inhibition of parasite growth after 72 hrs by parasite lactate dehydrogenase assay; type: functional, organism-based; conditions: D10, 72 h
Plasmodium falciparum [2] = assay: Antiplasmodial activity against chloroquine-resistant Plasmodium falciparum W2 infected in human A positive erythrocyte assessed as inhibition of parasite growth after 72 hrs by parasite lactate dehydrogenase assay; type: functional, organism-based; conditions: W2, 72 h
Mus musculus = assay: Toxicity against BALB/c mouse infected with chloroquine-sensitive Plasmodium berghei ANKA at 100 mg/kg, ip qd for 5 days; type: organism-based; conditions: in vivo, 120 h
[3] = Cytotoxicity against mouse NIH/3T3 cells assessed as cell viability after 24 hrs by neutral red uptake assay; type: cell-based, NIH3T3; conditions: read-out: TC50
Plasmodium berghei = assay: Antimalarial activity against chloroquine-sensitive Plasmodium berghei ANKA erythrocytic stage infected in BALB/c mouse assessed as reduction in parasitaemia at 100 mg/kg, ip qd after 5 days by Peters 4 days test; type: functional; design: scale not given: the % may be the effect or the level left

SMILES | IC50 (Plasmodium falciparum [1]) [nM] | IC50 (Plasmodium falciparum [2]) [nM] | Activity (Mus musculus) | CC50 at 24 h [3] [µM] | Activity (Plasmodium berghei) [%]
C1CCC2(CC1)OO[C@H]1CCCC[C@H]12 (racemic) | 7200 | 3200 | – | – | –
C[C@@]12CCO[C@@H]1OOC1(CCCCC1)C2 (racemic) | 5300 | 1100 | – | – | –
C[C@@]12CCO[C@@H]1OOC1(CCCCC1)CC2 (racemic) | > 20000 | > 17000 | – | – | –
C[C@@]12CCO[C@@H]1OOC1(CCCC1)C2 (racemic) | 840 | 470 | – | – | –
C[C@@]12CCO[C@@H]1OO[C@@](C)(C1CCCC1)C2 (mixture of isomers) | 1200 | 800 | – | – | –
C[C@@]12CCO[C@@H]1OO[C@@](C)(C1CCCCC1)C2 (mixture of isomers) | 390 | 140 | – | – | –
C[C@@]12CCO[C@@H]1OOC21CCCCC1 (racemic) | 8500 | > 25000 | – | – | –
C[C@@H]1CC[C@H]2[C@@H](C)C(=O)O[C@@H]3O[C@@]4(C)CC[C@@H]1[C@]32OO4 [ARTEMISININ] | – | 12 | – | – | –
C[C@@]12CCO[C@@H]1OOC1(C2)C2CC3CC(C2)CC1C3 (mixture of isomers) | 610 | 160 | Non-toxic | 150 | 72.5
C[C@@]1(CC23CC4CC(CC(C4)C2)C3)C[C@]2(C)CCO[C@@H]2OO1 (mixture of isomers) | 850 | 390 | – | – | –
